The supplement of paper PMC10627819

How the values were obtained:
Experiment in all cases: Bliss interaction score (quartile over a dose matrix) (fitness difference); higher = more antagonism (negative = synergy)
S. aureus Newman = test system: S. aureus Newman
Procedure, shortened: (§1)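 Growth in each well was taken as OD595 at entry into stationary phase. Dividing by the plate's robust no-drug mean and capping at 1 gave fitness, and single-drug fitness was inferred from the combination data. The Bliss score, observed minus product-expected fitness, is summarised by quartiles over technical, biological and donor/recipient replicates.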

B. subtilis 168 = test system: B. subtilis 168
Procedure, shortened: as §1

S. pneumoniae D39V = test system: S. pneumoniae D39V
Procedure, shortened: as §1

S. aureus DSM 20231 = test system: S. aureus DSM 20231
Procedure, shortened: as §1
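Also: first quartile when negative (synergy) and third quartile when positive (antagonism).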

| Compound | Bliss interaction score (S. aureus Newman) | Bliss interaction score (B. subtilis 168) | Bliss interaction score (S. pneumoniae D39V) | Bliss interaction score (S. aureus DSM 20231) |
| --- | --- | --- | --- | --- |
| N[C@@H]1CONC1=O [CycloserineD] + CN[C@H](CC(C)C)C(=O)N[C@H]1C(=O)N[C@@H](CC(N)=O)C(=O)N[C@H]2C(=O)N[C@H]3C(=O)N[C@H](C(=O)N[C@H](C(=O)O)c4cc(O)cc(O)c4-c4cc3ccc4O)[C@H](O)c3ccc(c(Cl)c3)Oc3cc2cc(c3O[C@@H]2O[C@H](CO)[C@@H](O)[C@H](O)[C@H]2O[C@H]2C[C@](C)(N)[C@H](O)[C@H](C)O2)Oc2ccc(cc2Cl)[C@H]1O [Vancomycin] | 0.0656 | -0.113 | -0.069 | 0.0736 |
| N[C@@H]1CONC1=O [CycloserineD] + CN[C@H](CC(C)C)C(=O)N[C@H]1C(=O)N[C@@H](CC(N)=O)C(=O)N[C@H]2C(=O)N[C@H]3C(=O)N[C@H](C(=O)N[C@H](C(=O)O)c4cc(O)cc(O)c4-c4cc3ccc4O)[C@H](O[C@H]3C[C@](C)(N)[C@@H](O)[C@H](C)O3)c3ccc(c(Cl)c3)Oc3cc2cc(c3O[C@@H]2O[C@H](CO)[C@@H](O)[C@H](O)[C@H]2O[C@H]2C[C@](C)(NCc3ccc(-c4ccc(Cl)cc4)cc3)[C@@H](O)[C@H](C)O2)Oc2ccc(cc2Cl)[C@H]1O [Oritavancin] | 0.0585 | 0.0352 | 0.0458 | -0.0757 |
| N[C@@H]1CONC1=O [CycloserineD] + CO[C@@H]1[C@@H](OC(N)=O)[C@@H](O)[C@H](Oc2ccc3c(O)c(NC(=O)c4ccc(O)c(CC=C(C)C)c4)c(=O)oc3c2C)OC1(C)C [Novobiocin] | 0.0912 | 0.0651 | 0.187 | 0.0888 |
| N[C@@H]1CONC1=O [CycloserineD] + CO[C@@]12[C@H](COC(N)=O)C3=C(C(=O)C(C)=C(N)C3=O)N1C[C@@H]1N[C@@H]12 [MitomycinC] | -0.0532 | 0.0912 | 0.108 | -0.0633 |
| N[C@@H]1CONC1=O [CycloserineD] + CO[C@H]1/C=C/O[C@@]2(C)Oc3c(C)c(O)c4c(O)c(c(/C=N/N5CCN(C)CC5)c(O)c4c3C2=O)NC(=O)/C(C)=C\C=C\[C@H](C)[C@H](O)[C@@H](C)[C@@H](O)[C@@H](C)[C@H](OC(C)=O)[C@@H]1C [Rifampicin] | 0.0463 | 0.0563 | 0.163 | -0.0935 |
| N[C@@H]1CONC1=O [CycloserineD] + COc1c(N2C[C@@H]3CCCN[C@@H]3C2)c(F)cc2c(=O)c(C(=O)O)cn(C3CC3)c12 [Moxifloxacin] | -0.0769 | -0.0252 | 0.0969 | -0.0873 |
| N[C@@H]1CONC1=O [CycloserineD] + COc1cc(Cc2cnc(N)nc2N)cc(OC)c1OC [Trimethoprim] | -0.067 | 0.0782 | 0.0932 | -0.0585 |
| N[C@@H]1CONC1=O [CycloserineD] + COc1ccc(C[C@H](N)C(=O)N[C@H]2[C@@H](O)[C@H](n3cnc4c(N(C)C)ncnc43)O[C@@H]2CO)cc1 [Puromycin] | 0.051 | 0.0439 | 0.142 | 0.0925 |
| N[C@@H]1CONC1=O [CycloserineD] + COc1cccc2c1C(=O)c1c(O)c3c(c(O)c1C2=O)C[C@@](O)(C(=O)CO)C[C@@H]3O[C@H]1C[C@H](N)[C@H](O)[C@H](C)O1 [Doxorubicin] | -0.0446 | 0.0778 | 0.0698 | 0.0418 |
| N[C@@H]1CONC1=O [CycloserineD] + C[C@@H]1O[C@@H]1P(=O)(O)O [Fosfomycin] | -0.033 | -0.046 | 0.0808 | -0.0611 |
| N[C@@H]1CONC1=O [CycloserineD] + C[C@@H](O)[C@H]1C(=O)N2C(C(=O)O)=C(SCCNC=N)C[C@H]12 [Imipenem] | -0.0358 | 0.0545 | -0.235 | 0.0715 |
| N[C@@H]1CONC1=O [CycloserineD] + C[C@H]1COc2c(N3CCN(C)CC3)c(F)cc3c(=O)c(C(=O)O)cn1c23 [Levofloxacin] | -0.131 | 0.0199 | 0.0882 | -0.12 |
| N[C@@H]1CONC1=O [CycloserineD] + C[C@H]1c2cccc(O)c2C(=O)C2=C(O)[C@]3(O)C(=O)C(C(N)=O)=C(O)[C@@H](N(C)C)[C@@H]3[C@@H](O)[C@@H]21 [Doxycycline] | -0.0254 | 0.0526 | 0.243 | -0.116 |
| N[C@@H]1CONC1=O [CycloserineD] + C[n+]1ccc(-c2cc[n+](C)cc2)cc1 [Paraquat] | 0.0488 | -0.036 | -0.101 | 0.0783 |
| N[C@@H]1CONC1=O [CycloserineD] + Cc1cc(NS(=O)(=O)c2ccc(N)cc2)no1 [Sulfamethoxazol] | 0.0449 | -0.0418 | -0.188 | 0.0715 |
| N[C@@H]1CONC1=O [CycloserineD] + Cc1ncc([N+](=O)[O-])n1CCO [Metronidazole] | 0.0557 | -0.0606 | -0.0766 | 0.0317 |
| N[C@@H]1CONC1=O [CycloserineD] + Cc1onc(-c2ccccc2)c1C(=O)N[C@@H]1C(=O)N2[C@@H]1SC(C)(C)[C@@H]2C(=O)O [Oxacillin] | -0.0567 | 0.0509 | -0.17 | 0.0729 |
